Results on three compounds are retold here after patent US5952376A, “Trienyl compounds” (The Trustees of the University of Pennsylvania, priority 1997, dated 1999).

A value given as a limit tells only on which side of the number the result lay.

One test relates to SK-N-SH. Nature of the test: Antitumor Activity (in vitro), Neuroblast SK-N-SH. It is filed as cell-based. The following applies: Homo sapiens. How it is done:
(§1) Trienes (+)-3a and (+)-3b were tested for antitumor activity generally in accordance with the procedure described by Bai, et al., Biochemistry 1995, 34, 9714.

A further test relates to FADU. Nature of the test: Antitumor Activity (in vitro), Pharynx-sq FADU. It is filed as cell-based. The following applies: Homo sapiens. On the procedure: as §1
In the next test the test system is NCI-H460. Nature of the test: Antitumor Activity (in vitro), Lung-NSC NCI-H460. The settings on record: Homo sapiens. Type of test: cell-based. On the procedure: as §1
The next test relates to BXPC-3. Kind of test: Antitumor Activity (in vitro), Pancreas-a BXPC-3. Type of test: cell-based. The following applies: Homo sapiens. How it is done:
as §1

A further test has as its system DU-145. Kind of test: Antitumor Activity (in vitro), Prostate DU-145. Type of test: cell-based. The following applies: Homo sapiens. On the procedure:
as §1

For a further test, the system named is human cancer cell lines. Kind of test: antitumor activity against a series of human cancer cell lines. It is filed as cell-based. On the procedure:
as §1

The test system of the next test is SW 1736. Nature of the test: Antitumor Activity (in vitro), Thyroid ca SW 1736. Type of test: cell-based. The settings on record: Homo sapiens. On the procedure: as §1
In test [1] the test system is chemoresistant tumor types, including human melanoma and lung, colon, and brain cancers. The settings on record: cited from earlier work.
Another test relates to microtubule assembly. The following applies: cited from earlier work.
In another test the test system is mitosis. The settings on record: cited from earlier work.
In the next test the test system is tubulin. The following applies: cited from earlier work.

One may read the GI50 as the concentration at which growth is held to half of that of the control. The low end stands for greater sensitivity of the cells, the high end for lower sensitivity of the cells. With `C=C/C=C/C(O)CC(=C)C[C@H]1OC(OC)[C@H](OCc2ccccc2)[C@@H](OCc2ccccc2)[C@@H]1OCc1ccccc1` (single isomer, unassigned) [Triene 3a], the concentration for 50% growth inhibition (GI50) in the test on SK-N-SH worked out at 540 nM; in the test on FADU it was 470 nM; in the test with NCI-H460, 460 nM; in the test with BXPC-3 it was 440 nM; in the test on DU-145, 560 nM; in the test with SW 1736 it was 1200 nM. Moreover, the antitumor activity entry with human cancer cell lines is “active”.
Take `C=C(Cl)/C=C/C(O)CC(=C)C[C@H]1OC(OC)[C@H](OCc2ccccc2)[C@@H](OCc2ccccc2)[C@@H]1OCc1ccccc1` (single isomer, unassigned) [Triene 3b]: the 50% growth inhibitory concentration (GI50) in the test on SK-N-SH is 3600 nM; with FADU it was 8300 nM; in the test on NCI-H460, 11000 nM; in the test on BXPC-3, 5300 nM; in the test with DU-145, above 16000 nM; in the test on SW 1736 it was 9600 nM. Moreover, the antitumor activity entry in the test on human cancer cell lines is “active”.
As to Spongistatin 1, the “activity against chemoresistant tumor types” value in test [1] is listed as “active”. Also, the blocking microtubule assembly entry in the test on microtubule assembly is reported as “blocking microtubule assembly”. In addition, the inhibition of mitosis entry with mitosis was “inhibits mitosis”. Moreover, in the test on tubulin, the binding to tubulin result is “binding to tubulin”.
